# Experimental data as given in patent US9656963B2 (BRISTOL-MYERS SQUIBB COMPANY, priority 2012, dated 2017).
# Molecular target: T1, hGPR40 (Homo sapiens, UniProt O14842)
# T1 construct: 3x FLAG; expressed in transfected cells
# Assay: FDSS-Based Intracellular Calcium Assay
# Assay type: cell-based
# Conditions: cells expressing GPR40, intracellular Ca2+ response
# Description: FDSS-Based Intracellular Calcium Assay
# Cell lines expressing GPR40 are generated using the pDEST 3× flag gene expression system and are cultured in culture medium comprising the following components: F12 (Gibco #11765), 10% lipid deprived fetal bovine serum, 250 μg/ml zeocin and 500 μg/ml G418. To conduct the fluorescent imaging plate reader (FLIPR)-based calcium flux assay to measure intracellular Ca^2+ response, cells expressing GPR40 are plated on 384 well plates (BD Biocoat #356697) at a density of 20,000 cells/20 μL medium per well in phenol red and serum-free DMEM (Gibco #21063-029) and incubated overnight. […] Compounds are dissolved in DMSO and diluted to desired concentrations with assay buffer and added to the cells as 3x solution (20 μL per well). Run fluorescence/luminescence reader FDSS (Hamamatsu) to read intracellular Ca^2+ response.
# T1 sequence (O14842 whole entry): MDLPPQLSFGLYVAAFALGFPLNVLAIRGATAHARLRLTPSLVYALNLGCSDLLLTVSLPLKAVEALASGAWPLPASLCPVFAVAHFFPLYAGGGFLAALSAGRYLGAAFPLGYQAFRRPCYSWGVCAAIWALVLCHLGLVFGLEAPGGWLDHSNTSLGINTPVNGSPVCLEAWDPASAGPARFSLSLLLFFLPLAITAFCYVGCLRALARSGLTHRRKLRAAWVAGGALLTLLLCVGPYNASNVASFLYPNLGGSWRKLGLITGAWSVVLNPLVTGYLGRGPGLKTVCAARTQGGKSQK
row,Compound,EC50
1,"Cc1cc(-c2cc(C#N)ccc2F)ccc1Cc1ccc(N2N=C(C#N)CC2CC(=O)O)cc1 (racemic) [Example 39, 2-(3-cyano-1-(4-((5′-cyano-2′-fluoro-3-methylbiphenyl-4-yl)methyl)phenyl)-4,5-dihydro-1H-pyrazol-5-yl)acetic acid]",200 nM
2,"COc1cc(-c2ccc(Cc3ccc(N4N=C(C(F)(F)F)[C@@H](C)[C@@H]4CC(=O)O)cc3)c(C)c2)c(F)cn1 [Example 74, 2-((4S,5 S)-1-(4-(4-(5-fluoro-2-methoxypyridin-4-yl)-2-methylbenzyl)phenyl)-4-methyl-3-(trifluoromethyl)-4,5-dihydro-1H-pyrazol-5-yl)acetic acid]",210 nM
3,"COc1ccc(F)c(-c2ccc(Cc3ccc(N4N=C(c5ccc(F)cc5)[C@@H](C)[C@@H]4CC(=O)O)cc3)c(C)c2)c1 (single isomer, unassigned) [Example 67, isomer 1]",9 nM
4,"COc1ccc(F)c(-c2ccc(Cc3ccc(N4N=C(C(F)(F)F)CC4CC(=O)O)cc3)cc2C)c1 (single isomer, unassigned) [Example 22, Isomer 2, 2-(1-(4-((2′-fluoro-5′-methoxy-2-methylbiphenyl-4-yl)methyl)phenyl)-3-(trifluoromethyl)-4,5-dihydro-1H-pyrazol-5-yl)acetic acid]",350 nM
5,"COc1cc(-c2ccc(Cc3ccc(N4N=C(C(F)(F)F)CC4CC(=O)O)cc3)c(C)c2)c(F)cn1 (single isomer, unassigned) [Example 27, Isomer 1, 2-(1-(4-(4-(5-fluoro-2-methoxypyridin-4-yl)-2-methylbenzyl)phenyl)-3-(trifluoromethyl)-4,5-dihydro-1H-pyrazol-5-yl)acetic acid]",360 nM
6,"COc1ccc(F)c(-c2cc(C)c(Oc3ccc(N4N=C(C(F)(F)F)CC4CC(=O)O)cc3)cc2F)c1 (racemic) [Example 12, 2-(1-(4-(2,2′-difluoro-5′-methoxy-5-methylbiphenyl-4-yloxy)phenyl)-3-(trifluoromethyl)-4,5-dihydro-1H-pyrazol-5-yl)acetic acid]",510 nM
7,"COc1cc(-c2ccc(Oc3ccc(N4N=C(C(F)(F)F)CC4CC(=O)O)cc3)c(C)c2)c(F)cn1 (single isomer, unassigned) [Example 15, Isomer 1, 2-(1-(4-(4-(5-fluoro-2-methoxypyridin-4-yl)-2-methylphenoxy)phenyl)-3-(trifluoromethyl)-4,5-dihydro-1H-pyrazol-5-yl)acetic acid]",270 nM
8,"COc1ccc(F)c(-c2ccc(Cc3ccc(N4N=C(C(F)(F)F)CC4CC(=O)O)cc3)c(C)c2)c1 (single isomer, unassigned) [Example 17, Isomer 2, 2-(1-(4-((2′-fluoro-5′-methoxy-3-methylbiphenyl-4-yl)methyl)phenyl)-3-(trifluoromethyl)-4,5-dihydro-1H-pyrazol-5-yl)acetic acid]",90 nM
9,"COc1ccc(F)c(-c2ccc(Cc3ccc(N4N=C(c5ccc(F)cc5)[C@@H](C)[C@@H]4CC(=O)O)cc3)c(C)c2)c1 (single isomer, unassigned) [Example 67, isomer 2]",800 nM
10,"COc1ccc(F)c(-c2ccc(Oc3ccc(N4N=C(C(F)(F)F)CC4CC(=O)O)cc3)c(Cl)c2)c1 (single isomer, unassigned) [Example 42, Isomer 1, 2-(1-(4-(3-chloro-2′-fluoro-5′-methoxybiphenyl-4-yloxy)phenyl)-3-(trifluoromethyl)-4,5-dihydro-1H-pyrazol-5-yl)acetic acid]",620 nM
11,"COc1cccc(-c2ccc(Cc3ccc(N4N=C(C(F)(F)F)CC4CC(=O)O)cc3)c(C)c2)c1 (single isomer, unassigned) [Example 26, Isomer 1, 2-(1-(4-((3′-methoxy-3-methylbiphenyl-4-yl)methyl)phenyl)-3-(trifluoromethyl)-4,5-dihydro-1H-pyrazol-5-yl)acetic acid]",330 nM
12,"COc1ccc(F)c(-c2ncc(Cc3ccc(N4N=C(C(F)(F)F)[C@@H](C)[C@@H]4CC(=O)O)cc3)c(C)n2)c1 (single isomer, unassigned) [Example 63]",700 nM
13,"CCOc1ccc(F)c(-c2ccc(Cc3ccc(N4N=C(C(F)(F)F)[C@@H](C)[C@@H]4CC(=O)O)cc3)c(C)c2)c1 [Example 70, 2-((4S,5S)-1-(4-((5′-ethoxy-2′-fluoro-3-methyl-[1,1′-biphenyl]-4-yl)methyl)phenyl)-4-methyl-3-(trifluoromethyl)-4,5-dihydro-1H-pyrazol-5-yl)acetic acid]",120 nM
14,"N#CC1=NN(c2ccc(Oc3cccc(Cl)c3)cc2)C(CC(=O)O)C1 (racemic) [Example 4, 2-(1-(4-(3-chlorophenoxy)phenyl)-3-cyano-4,5-dihydro-1H-pyrazol-5-yl)acetic acid]",220 nM
15,"COc1cc(-c2ccc(Oc3ccc(N4N=C(C(F)(F)F)CC4CC(=O)O)cc3)c(C)c2)c(F)cn1 (single isomer, unassigned) [Example 15, Isomer 2, 2-(1-(4-(4-(5-fluoro-2-methoxypyridin-4-yl)-2-methylphenoxy)phenyl)-3-(trifluoromethyl)-4,5-dihydro-1H-pyrazol-5-yl)acetic acid]",530 nM
16,"COc1ccc(F)c(-c2ccc(Cc3ccc(N4N=C(c5ncccn5)C(C)C4CC(=O)O)cc3)c(C)c2)c1 (single isomer, unassigned) [Example 61 isomer 1]",> 16600 nM
17,"COc1cc(-c2ccc(Cc3ccc(N4N=C(C(F)(F)F)[C@@H](C)[C@@H]4CC(=O)O)cc3)c(C)c2)ccn1 [Example 75, 2-((4S,5S)-1-(4-(4-(2-methoxypyridin-4-yl)-2-methylbenzyl)phenyl)-4-methyl-3-(trifluoromethyl)-4,5-dihydro-1H-pyrazol-5-yl)acetic acid]",430 nM
18,"COc1ccc(Cl)c(-c2ccc(Cc3ccc(N4N=C(C#N)CC4CC(=O)O)cc3)c(C)c2)c1 (racemic) [Example 40, 2-(1-(4-((2′-chloro-5′-methoxy-3-methylbiphenyl-4-yl)methyl)phenyl)-3-cyano-4,5-dihydro-1H-pyrazol-5-yl)acetic acid]",120 nM
19,"COc1ccc(OC)c(-c2ccc(Cc3ccc(N4N=C(C#N)CC4CC(=O)O)cc3)c(C)c2)c1 (single isomer, unassigned) [Example 49, Isomer 1, 2-(3-cyano-1-(4-((2′,5′-dimethoxy-3-methylbiphenyl-4-yl)methyl)phenyl)-4,5-dihydro-1H-pyrazol-5-yl)acetic acid]",225 nM
20,"COc1ccc(OC)c(-c2ccc(Cc3ccc(N4N=C(C#N)CC4CC(=O)O)cc3)c(C)c2)c1 (single isomer, unassigned) [Example 49, Isomer 2, 2-(3-cyano-1-(4-((2′,5′-dimethoxy-3-methylbiphenyl-4-yl)methyl)phenyl)-4,5-dihydro-1H-pyrazol-5-yl)acetic acid]",3110 nM
21,"COc1ccc(F)c(-c2ccc(Cc3ccc(N4N=C(C(F)(F)F)C(C)C4CC(=O)O)cc3)c(Cl)c2)c1 (single isomer, unassigned) [Example 60, Isomer 1, 22-(1-(4-((3-chloro-2′-fluoro-5′-methoxy-[1,1′-biphenyl]-4-yl)methyl)phenyl)-4-methyl-3-(trifluoromethyl)-4,5-dihydro-1H-pyrazol-5-yl)acetic acid]",970 nM
22,"Cc1ccccc1Oc1ccc(N2N=C(c3nnnn3C)CC2CC(=O)O)cc1 (racemic) [Example 7, 2-(3-(1-methyl-1H-tetrazol-5-yl)-1-(4-(o-tolyloxy)phenyl)-4,5-dihydro-1H-pyrazol-5-yl)acetic acid]",3200 nM
23,"COc1ccc(F)c(-c2ccc(Cc3ccc(N4N=C(C#N)CC4CC(=O)O)cc3)c(C)c2)c1 (single isomer, unassigned) [Example 34, Isomer 1, 2-(3-cyano-1-(4-((2′-fluoro-5′-methoxy-3-methylbiphenyl-4-yl)methyl)phenyl)-4,5-dihydro-1H-pyrazol-5-yl)acetic acid]",150 nM
24,"COc1ccc(F)c(-c2ccc(Cc3ccc(N4N=C(c5cc(C)on5)[C@@H](C)[C@@H]4CC(=O)O)cc3)c(C)c2)c1 (single isomer, unassigned) [Example 69, isomer 2]",2560 nM
25,"Cc1cc(-c2cc(O)ccc2F)ccc1Cc1ccc(N2N=C(C(F)(F)F)[C@@H](C)[C@@H]2CC(=O)O)cc1 [Example 56, 2-((4S,5S)-1-(4-((2′-fluoro-5′-hydroxy-3-methyl-[1,1′-biphenyl]-4-yl)methyl)phenyl)-4-methyl-3-(trifluoromethyl)-4,5-dihydro-1H-pyrazol-5-yl)acetic acid]",150 nM
26,"COc1ccc(F)c(-c2ccc(Cc3ccc(N4N=C(C(F)(F)F)C(c5ccccc5)C4CC(=O)O)cc3)c(C)c2)c1 (single isomer, unassigned) [Example 47, Isomer 2, 2-(1-(4-((2′-fluoro-5′-methoxy-3-methylbiphenyl-4-yl)methyl)phenyl)-4-phenyl-3-(trifluoromethyl)-4,5-dihydro-1H-pyrazol-5-yl)acetic acid]",5930 nM
27,"COc1ccc(F)c(-c2ccc(Cc3ccc(N4N=C(C#N)C(C)C4CC(=O)O)cc3)c(C)c2)c1 (single isomer, unassigned) [Example 52, Isomer 1, 2-(3-cyano-1-(4-((2′-fluoro-5′-methoxy-3-methylbiphenyl-4-yl)methyl)phenyl)-4-methyl-4,5-dihydro-1H-pyrazol-5-yl)acetic acid]",1050 nM
28,"COc1ccc(F)c(-c2ccc(Oc3ccc(N4N=C(C(F)(F)F)CC4CC(=O)O)cc3)c(C)c2)c1 (single isomer, unassigned) [Example 14, Isomer 2, 2-(1-(4-(2′-fluoro-5′-methoxy-3-methylbiphenyl-4-yloxy)phenyl)-3-(trifluoromethyl)-4,5-dihydro-1H-pyrazol-5-yl)acetic acid]",160 nM
